Measurements taken from patent US7910609B2, “Inhibitors of integrin alpha2beta1 with modified urea moiety” (The Trustees Of The University Of Pennsylvania, priority 2005, dated 2011).

Columns and labels:
[1] = target: T1, integrin α2β1 (Homo sapiens, UniProt P05556+P17301); test: Platelet adhesion assay: washed human platelet binding to soluble type I collagen; format: cell-based
T1 construct: Human blood was obtained by venipuncture from healthy volunteers; endogenous in cells; host or cells: washed human platelets from blood of healthy volunteers
T1 sequence (P17301 30-1181): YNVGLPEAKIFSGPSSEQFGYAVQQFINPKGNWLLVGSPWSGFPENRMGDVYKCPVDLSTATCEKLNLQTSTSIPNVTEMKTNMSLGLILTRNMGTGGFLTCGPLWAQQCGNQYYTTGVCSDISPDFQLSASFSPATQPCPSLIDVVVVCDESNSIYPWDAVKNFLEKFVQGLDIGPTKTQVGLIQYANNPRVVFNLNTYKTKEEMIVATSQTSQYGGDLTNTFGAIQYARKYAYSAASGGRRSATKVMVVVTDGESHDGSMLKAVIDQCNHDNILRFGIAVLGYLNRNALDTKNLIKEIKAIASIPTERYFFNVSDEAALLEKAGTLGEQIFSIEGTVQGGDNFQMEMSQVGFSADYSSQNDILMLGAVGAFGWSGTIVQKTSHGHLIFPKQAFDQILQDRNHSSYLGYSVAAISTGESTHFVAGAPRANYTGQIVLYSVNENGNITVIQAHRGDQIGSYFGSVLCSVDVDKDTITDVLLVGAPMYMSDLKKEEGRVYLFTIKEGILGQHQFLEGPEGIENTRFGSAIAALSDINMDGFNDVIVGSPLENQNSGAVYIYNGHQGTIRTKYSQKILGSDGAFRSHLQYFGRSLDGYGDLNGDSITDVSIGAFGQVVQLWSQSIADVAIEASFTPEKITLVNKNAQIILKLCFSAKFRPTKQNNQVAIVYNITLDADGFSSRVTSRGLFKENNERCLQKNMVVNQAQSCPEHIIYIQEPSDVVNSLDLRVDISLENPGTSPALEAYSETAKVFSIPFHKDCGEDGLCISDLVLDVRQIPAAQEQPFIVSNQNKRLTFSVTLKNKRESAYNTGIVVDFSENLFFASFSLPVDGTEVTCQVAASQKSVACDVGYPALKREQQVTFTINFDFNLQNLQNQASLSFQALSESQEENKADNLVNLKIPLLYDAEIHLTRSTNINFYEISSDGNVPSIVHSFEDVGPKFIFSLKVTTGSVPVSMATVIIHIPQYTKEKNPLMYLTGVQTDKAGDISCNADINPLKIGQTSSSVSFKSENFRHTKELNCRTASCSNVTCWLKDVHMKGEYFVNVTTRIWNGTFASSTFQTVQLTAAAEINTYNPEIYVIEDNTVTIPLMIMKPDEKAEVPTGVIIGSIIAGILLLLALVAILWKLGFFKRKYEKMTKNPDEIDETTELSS
T1 sequence (P05556 21-798): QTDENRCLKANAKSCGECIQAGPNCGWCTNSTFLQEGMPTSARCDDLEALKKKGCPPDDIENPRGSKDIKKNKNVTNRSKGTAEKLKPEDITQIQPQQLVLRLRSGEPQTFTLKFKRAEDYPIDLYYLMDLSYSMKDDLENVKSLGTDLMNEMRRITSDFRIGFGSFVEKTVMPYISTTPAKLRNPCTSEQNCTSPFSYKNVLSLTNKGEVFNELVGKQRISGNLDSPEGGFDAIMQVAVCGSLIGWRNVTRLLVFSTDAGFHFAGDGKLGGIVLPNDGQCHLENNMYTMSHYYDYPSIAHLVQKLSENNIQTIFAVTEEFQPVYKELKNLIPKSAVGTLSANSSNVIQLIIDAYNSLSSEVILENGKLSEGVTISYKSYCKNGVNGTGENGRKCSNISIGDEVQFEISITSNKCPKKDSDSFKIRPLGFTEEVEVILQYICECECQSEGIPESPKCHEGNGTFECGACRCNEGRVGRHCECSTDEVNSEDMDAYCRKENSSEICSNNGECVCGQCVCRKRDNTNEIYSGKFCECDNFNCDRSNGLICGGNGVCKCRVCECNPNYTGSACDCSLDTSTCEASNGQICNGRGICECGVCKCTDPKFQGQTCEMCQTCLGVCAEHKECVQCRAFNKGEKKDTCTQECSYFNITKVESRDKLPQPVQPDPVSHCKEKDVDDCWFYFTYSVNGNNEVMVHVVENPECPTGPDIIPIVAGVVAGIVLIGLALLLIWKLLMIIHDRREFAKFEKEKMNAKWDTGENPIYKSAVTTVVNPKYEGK
Procedure: The series of compounds was tested for the ability to block washed human platelet binding to soluble type I collagen. […] Further understanding was sought with respect to the SAR of the urea functionality and its spatial positioning.
(§1) Preparation of Washed Platelets. All Studies were Conducted Following IRB-approved protocols at the University of Pennsylvania. Human blood was obtained by venipuncture from healthy volunteers using 0.3% sodium citrate as anticoagulant, then acid-citrate-dextrose was added (1 mL per 10 mL blood). Platelet-rich plasma (PRP) was then prepared by centrifugation at 200 g for 20 min. Platelets were obtained from the PRP by addition of prostacyclin (PG I2: 0.1 μg/ml) followed by centrifugation at 1000 g for 10 min. The pelleted platelets were resuspended in HEPES/Tyrode's buffer (20 mM HEPES, 129 mM NaCl, 0.34 mM Na2HPO4, 2.9 mM KCl, 12 mM NaHCO3, 5 mM glucose, 1 mm MgCl2, pH 7.3) and repelleted by repeated PG I2 addition and centrifugation.
(§2) Platelet Adhesion Assays. Immulon 2 flat bottom 96-well Plates (Dynatech Labs, Burlington, Mass.) were coated with soluble type I collagen, fibronectin (FN) or osteopontin (OPN) (5 μg/ml) in PBS for 48 hrs at 4° C. The plates were then washed and blocked with BSA (5 mg/ml in PBS) for at least 24 hr. Adhesion assays using type I collagen contained test compound and 1.6×10^7 Platelets in GFP buffer in a final volume of 100 μl. The plates were then incubated for 30 min at 37° C. and washed with TBS (10 mM Tris, 150 mM NaCl, pH 7.4). Quantification of adherent platelets was performed as previously described.^[27] Briefly, the platelets were stained for acid phosphatase by adding 0.1 M sodium citrate (pH 5.4) with 0.1% Triton X-100 containing 5 mM p-nitrophenyl phosphate substrate (100 μl/well) and incubated for 40 min at 37° C. Color was then developed by the addition of 50 μl 2.0 M NaOH per well and the plates were read at 405 nm in a Molecular Devices Spectra Max M5 microplate reader. Adhesion to FN- and OPN-coated plates were performed similarly using a modified GFP buffer for resuspension (4 mM HEPES, 147 mM NaCl, 2.7 mM KCl, 0.35% BSA, 0.1% glucose, 1 mM MgCl2, 1 mM MnCl2, pH 7.4). Platelets were stimulated in OPN binding by addition of 20 μM ADP during incubation.^[28] The platelets in αvβ3-mediated binding to FN were pre-treated with 2 μg per mL ReoPro (abciximab, chimeric 7E3 Fab; Centocor, Malvern Pa.) for 20 minutes at RT.

[2] = target: T2, integrin α5β1 (Homo sapiens, UniProt P05556+P08648); test: Platelet adhesion to fibronectin (in the presence of abciximab); format: cell-based; details: Table 2 selectivity, ligand Fibronectin
T2 construct: Platelets express several integrins, including αIIbβ3, αvβ3, α2β1, α5β1, and α6β1; endogenous in cells; host or cells: washed human platelets from blood of healthy volunteers
T2 sequence (P08648 42-894 limits assumed): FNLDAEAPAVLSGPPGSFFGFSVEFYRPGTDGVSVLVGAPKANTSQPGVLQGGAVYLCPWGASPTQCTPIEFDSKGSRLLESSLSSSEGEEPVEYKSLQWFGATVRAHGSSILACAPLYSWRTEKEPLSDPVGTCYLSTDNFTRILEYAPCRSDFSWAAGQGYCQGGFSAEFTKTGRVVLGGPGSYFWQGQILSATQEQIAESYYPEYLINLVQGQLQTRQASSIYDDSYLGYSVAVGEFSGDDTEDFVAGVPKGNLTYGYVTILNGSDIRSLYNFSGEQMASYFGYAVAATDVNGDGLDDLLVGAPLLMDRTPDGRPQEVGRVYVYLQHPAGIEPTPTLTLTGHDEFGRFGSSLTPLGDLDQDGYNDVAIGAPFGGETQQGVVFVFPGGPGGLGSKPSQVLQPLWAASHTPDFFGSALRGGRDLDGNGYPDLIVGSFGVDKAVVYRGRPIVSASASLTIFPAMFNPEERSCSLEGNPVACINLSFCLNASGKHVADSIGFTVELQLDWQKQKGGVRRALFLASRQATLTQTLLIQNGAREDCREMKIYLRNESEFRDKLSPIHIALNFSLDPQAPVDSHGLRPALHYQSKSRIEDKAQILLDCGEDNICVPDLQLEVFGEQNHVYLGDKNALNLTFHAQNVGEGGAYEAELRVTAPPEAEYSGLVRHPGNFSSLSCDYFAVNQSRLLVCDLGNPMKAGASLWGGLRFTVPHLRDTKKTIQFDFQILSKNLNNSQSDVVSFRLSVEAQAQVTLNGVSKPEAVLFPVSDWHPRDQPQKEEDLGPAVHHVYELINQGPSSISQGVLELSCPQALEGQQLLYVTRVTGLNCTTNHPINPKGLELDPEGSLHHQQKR
T2 sequence (P08648 895-1049 limits assumed): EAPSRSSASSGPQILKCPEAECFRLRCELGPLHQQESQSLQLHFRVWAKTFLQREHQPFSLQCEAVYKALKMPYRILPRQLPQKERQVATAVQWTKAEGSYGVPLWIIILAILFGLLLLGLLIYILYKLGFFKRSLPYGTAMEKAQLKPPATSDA
T2 sequence (P05556 21-798): as the sequence (P05556 21-798) above
Procedure: as §1
as §2, with “The platelets in αvβ3-mediated binding to FN were pre-treated with 2 μg per mL ReoPro (abciximab, chimeric 7E3 Fab; Centocor, Malvern Pa.) for 20 minutes at RT.” left out

[3] = Table 1, washed human platelets, soluble type I collagen, 30 min at 37° C.
[4] = Compounds Produced in Accordance with Scheme 2

IC50 [1, 3]	SMILES	other results
7 nM	CC1(C)SCN(S(=O)(=O)c2ccccc2)C1C(=O)N[C@@H](CNC(=S)NCc1ccccc1)C(=O)O (some centres unmarked) [Compound 6]	–
22 nM	C[C@@H](NC(=O)NC[C@H](NC(=O)C1N(S(=O)(=O)c2ccccc2)CSC1(C)C)C(=O)O)c1ccccc1 (some centres unmarked) [Compound 7]	greater potency of (R) conformation (7) than (S) conformation (8) ([1]; 7 versus 8, platelet adhesion to type I collagen): > 25 fold
> 500 nM	C[C@H](NC(=O)NC[C@H](NC(=O)C1N(S(=O)(=O)c2ccccc2)CSC1(C)C)C(=O)O)c1ccccc1 (some centres unmarked) [Compound 8]	–
4 nM	Cc1ccccc1CNC(=O)NC[C@H](NC(=O)C1N(S(=O)(=O)c2ccccc2)CSC1(C)C)C(=O)O (some centres unmarked) [Compound 9]	IC50 [2]: > 1000 nM
8 nM	Cc1cccc(CNC(=O)NC[C@H](NC(=O)C2N(S(=O)(=O)c3ccccc3)CSC2(C)C)C(=O)O)c1 (some centres unmarked) [Compound 10]	IC50 [2]: > 1000 nM
6 nM	Cc1ccc(CNC(=O)NC[C@H](NC(=O)C2N(S(=O)(=O)c3ccccc3)CSC2(C)C)C(=O)O)cc1 (some centres unmarked) [Compound 11]	–
6 nM	CC1(C)SCN(S(=O)(=O)c2ccccc2)C1C(=O)N[C@@H](CNC(=O)NCc1ccc(Cl)cc1)C(=O)O (some centres unmarked) [Compound 15]	IC50 [2]: > 1000 nM
4 nM	CC1(C)SCN(S(=O)(=O)c2ccccc2)C1C(=O)N[C@@H](CNC(=O)NCc1ccc(Br)cc1)C(=O)O (some centres unmarked) [Compound 16]	–
41 nM	CC1(C)SCN(S(=O)(=O)c2ccccc2)C1C(=O)N[C@@H](CNC(=O)NCc1ccc(C(F)(F)F)cc1)C(=O)O (some centres unmarked) [Compound 17]	–
15 nM	CC(C)(C)CNC(=O)NC[C@H](NC(=O)C1N(S(=O)(=O)c2ccccc2)CSC1(C)C)C(=O)O (some centres unmarked) [Compound 19]	–
> 2000 nM	CC1(C)SCN(S(=O)(=O)c2ccccc2)C1C(=O)N[C@@H](CNC(=O)NCC(c1ccccc1)c1ccccc1)C(=O)O (some centres unmarked) [Compound 20]	–
320 nM	CC1(C)SCN(S(=O)(=O)c2ccccc2)C1C(=O)N[C@@H](CNC(=O)NC(c1ccccc1)c1ccccc1)C(=O)O (some centres unmarked) [Compound 21]	–
133 nM	CC1(C)SCN(S(=O)(=O)c2ccccc2)C1C(=O)N[C@@H](CNC(=O)NCCc1ccccc1)C(=O)O (some centres unmarked) [Compound 22]	–
28 nM	CC1(C)SCN(S(=O)(=O)c2ccccc2)C1C(=O)N[C@@H](CNC(=O)NCC1CCCCC1)C(=O)O (some centres unmarked) [Compound 23]	–
–	O=C(NCc1ccccc1)NCC(NC(=O)C1CCN1S(=O)(=O)c1ccccc1)C(=O)O (centres unmarked) [Compound 24, 2-[(1-Benzenesulfonyl-azetidine-2-carbonyl)-amino]-3-(3-benzyl-ureido)-propionic acid]	IC50 [1, 4]: 215 nM
–	CC1OCN(S(=O)(=O)c2ccccc2)C1C(=O)NC(CNC(=O)NCc1ccccc1)C(=O)O (centres unmarked) [Compound 27, 2-[(3-Benzenesulfonyl-5-methyl-oxazolidine-4-carbonyl)-amino]-3-(3-benzyl-ureido)-propionic acid]	IC50 [1, 4]: 12 nM
